Experimental data reported in patent US11731982B2, “Biotin derivatives” (LIFE TECHNOLOGIES CORPORATION, priority 2010, dated 2023).

Columns and labels:
[1] = Isolation of azido sugar containing glycoproteins from Jurkat cell lysate by click labeling and streptavidin agarose; conditions: elution 1% SDS in H2O at 95° C. for 5 min
Method: In order to isolate azido sugar containing glycoproteins from cell mixture, the Jurkat cells were cultured in Ac4GlcNAz supplemented media for 24 h. In this culturing, Jurkat cells were cultured in 100 mL RPMI 1640 media supplemented with 10% FBS at two T175 tissue culture flasks. When cell density reached ˜10×10^6 cells/mL, 100 μL of Ac4GlcNAz (100 mM in DMSO) and DMSO (control) were added, respectively. The flasks were incubated at 37° C. humidified incubator with 5% CO2 for 24 h. After incubation, the Jurkat cells were collected by centrifugation at 600×g for 5 min, and washed with PBS five times. The cell pellet was suspended in PBS to adjust the cell density at 50×10^6 cells/mL, and transferred 1 mL each to 1.5 mL tube. The cells were collected again by centrifugation at 600×g for 5 min. Then, 1 mL of 0.5% SDS/PBS was added to each tube, and lysated by sonication. The cell lysate was prepared at ˜3 mg/mL in 0.5% SDS/PBS.
Cell lysate was incubated with N3′-ethyl biotin alkyne 118 or biotin alkyne in the presence of CuSO4, THPTA, and sodium ascorbate at room temperature as described below. N3′-Ethyl biotin alkyne 118 and biotin alkyne (Invitrogen) were used to perform parallel protein enrichment experiments. Biotin alkyne has the structure: […]

streptavidin = target: T1, streptavidin (Streptomyces avidinii, UniProt P22629); experiment: Kinetic measurement of rate constants, label-free ForteBio system, N3′-ethyl biotin immobilized on sensor tips; assay type: binding
T1 construct: purchased ForteBio
T1 sequence (P22629 25-183): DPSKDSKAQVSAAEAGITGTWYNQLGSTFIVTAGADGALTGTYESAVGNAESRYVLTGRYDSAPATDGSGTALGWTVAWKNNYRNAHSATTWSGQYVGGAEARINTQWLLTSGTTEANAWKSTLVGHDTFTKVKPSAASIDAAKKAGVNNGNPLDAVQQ
Method: The binding constant and on-and-off rate constant of N3′-ethyl biotin with streptavidin were tested using a label-free ForteBio system. The N3′-ethyl biotin 117 was covalently immobilized to amine reactive sensor tips from ForteBio. To generate the association curve, the N3′-ethyl biotin labeled biosensor tips were incubated with streptavidin at 25° C. The dissociation curve was determined by incubating the streptavidin bound sensor tips in PBS buffer described above, as well as in PBS buffer containing 2 mM biotin at 25° C. […] The dissociation constant kD of N3′-ethyl biotin is about 0.8 nM.
The details of fluorescent capture and release assay were follows. All interaction analyses were conducted at 25° C. in kinetic buffer (PBS, 0.1% BSA, 0.05% Tween-20, pH 7.2). The amine reactive biosensor tips from ForteBio were prewet for 20 min in water prior to use. The prepared samples and buffers were added to a 96-well microplate at 200 μL per well according the following sample layout, and the entire 96-well plate was agitated at 1000 rpm. Eight biosensor tips were performed the kinetic assay in parallel. Each amine reactive biosensor tip was equilibrated in MES buffer for 5 min, then activated with EDC/NHS for 5 min. The activated biosensor tip was labeled with 2 mM N3′-ethyl biotin 117 for 10 min, then quenched with 1 M ethanolamine for 5 min. The N3′-ethyl biotin 117 immobilized biosensor tip was incubated in kinetic buffer for 5 min to generate baseline, then incubated with 2 μg/mL streptavidin in kinetic buffer or kinetic buffer (control) at 1000 rpm for 10 min to generate association curve, followed by incubation with kinetic buffer or 2 mM biotin in kinetic buffer at 1000 rpm for 10 min to generate dissociation curve. The ForteBio Data Analysis Octet software was used to process the curve by subtracting sample curve from reference curve, and the kinetic data was calculated by fitting curve.

[2] = target: T2, M-280 Streptavidin Dynabeads (streptavidin) (Streptomyces avidinii, UniProt P22629); experiment: Fluorescent capture and release assay on M-280 Streptavidin Dynabeads; assay type: binding
T2 construct: purchased Invitrogen
T2 sequence (P22629 25-183): as above
Method: In order to evaluate the binding affinity and reversibility of N3′-ethyl biotin with streptavidin, a simple fluorescent binding and release assay was designed. Briefly, N3′-ethyl biotin-AF488 conjugate 117 was incubated with M-280 Streptavidin Dynabeads in pH 7.4 PBS buffer. After 25 min incubation at room temperature, the magnetic beads were separated from the supernatant, which was used to measure the capture efficiency, by measuring the fluorescent intensity of the supernatant solution to determine the amount that was not captured. Then, the N3′-ethyl biotin 117 bound magnetic beads were washed with PBS buffer to remove weak or non-specific binding. The reversibility was tested by incubating the N3′-ethyl biotin 117 bound magnetic beads with 2 mM biotin in PBS buffer at room temperature for 5 min, then the magnetic beads were concentrated by a magnet, and the fluorescent intensity in the solution was measured to determine the amount that was released. As a control, biocytin-AF488 conjugate was also tested in the same assay format.
The details of fluorescent capture and release assay were as follows. 100 μL of M280 Streptavidin Dynabeads (10 mg/mL, Invitrogen) was transferred to a 1.5 mL centrifuge tube, and washed with 500 μL PBS three times. […]

Compound: C#CCNC(=O)CCOCCOCCOCCOCCNC(=O)CCCC[C@@H]1SC[C@@H]2NC(=O)N[C@@H]21 [biotin alkyne]
- quality of isolated proteins [1]: contaminated with streptavidin

Compound: Biotin
- reversibility of streptavidin binding (streptavidin; in the presence of 1 mM bis-biotin competing reagent): almost irreversible

Compound: CCN1C(=O)N[C@H]2CS[C@@H](CCCCC(=O)O)[C@H]21 [N3′-ethyl biotin]
- off-rate koff in the presence of 1 mM bis-biotin competing reagent (streptavidin; 1 mM bis-biotin): ~5.8×10^−2 S^−1
- on-rate kon with streptavidin (streptavidin; 25° C.): ~1.5×10^5 M^−1S^−1
- off-rate koff in the presence of 2 mM biotin (streptavidin; 25° C., 2 mM biotin): ~5.8×10^−2 S^−1
- Kd (streptavidin; 25° C., read-out: dissociation constant kD): ~0.8 nM

Compound: N[C@@H](CCCCNC(=O)CCCC[C@@H]1SC[C@@H]2NC(=O)N[C@@H]21)C(=O)O [Biocytin]
- Capture efficiency ([2]; 0.2 μM in PBS pH 7.4, 25 min room temperature): 96 ± 2%
- Release efficiency ([2]; 2 mM biotin in PBS, room temperature 5 min): <5%
